Experimental data from patent US9504692B2, “Selective inhibition of MALT1 protease by phenothiazine derivatives” (HELMHOLTZ ZENTRUM MUNCHEN, DEUTSCHES FORSCHUNGSZENTRUM FUR …, priority 2011, dated 2016).
“Also recorded” adds a separate entry of the source. Where two headings read alike, the source gives them in different places. *1 amine or outer side, *2 acyl side, *3 side chain or, on linkers, in order; H or OH if unused. Where a SMILES comes first, the peptide text is derived from it. [ ]: non-standard residue; d: D form. The star is where a group is joined. Sta = CC(C)C[C@H](N)[C@@H](O)CC(=O)O; Isovaleryl = CC(C)CC(=O)*; CO = O=C([*:1])[*:2]

Tests used:
[1] = tested on: GCB-DLBCL cells; assay: Apoptosis by AnnexinV-PE/7-AAD FACS, GCB-DLBCL cells; format: cell-based; conditions: 15 μM, five days
Description: (§1) Viability of DLBCL cell lines was analysed with a cell count assay of trypan blue stained cells after four days and by MTT (3-4,5-Dimethylthiazol-2-yl-2,5-diphenyltetrazoliumbromid) cytotoxicity test after two days of dose-dependent inhibitor treatment in comparison to DMSO treated control cells. The cell-dependent reduction of MTT to formazan was measured at λ=450 nm with a μQuant microplate spectrophotometer (Biotek). Apoptosis rates were determined with PE-Annexin V staining of 7AAD^− cells (BD Pharmingen) by FACS analysis (LSRII, BD) after five days of compound treatment. Data was analyzed using FlowJo software (Treestar).

[2] = tested on: Jurkat T cells; assay: IL-2 secretion of Jurkat T cells (ELISA); format: cell-based, human; conditions: 5 and 10 μM; P/I or anti-CD3/CD28 for 20 h
[3] = tested on: NF-κB; assay: NF-κB DNA binding (EMSA) and NF-κB target proteins in ABC-DLBCL cells; format: cell-based; conditions: 10 and 20 μM
[4] = tested on: GCB-DLBCL cell line Su-DHL-6; assay: Murine DLBCL xenogeneic tumor model, GCB-DLBCL Su-DHL-6; format: in vivo, NSG mice
Description: (§2) (A) Transplantation of OCI-Ly10 or Su-DHL-6 cells resuspended in matrigel (BD) into the flanks of NOD.Cg-Prkdc^scid ll2rg^tm1Wjl/SzJ (NSG) mice was carried out on day 0. Tumor size was determined by caliper measurement. […] Apoptosis was determined on tumor sections by TUNEL staining after 22 days of treatment. Pictures show staining of representative tumor sections. […] Expression of RelB and the MALT1-dependent cleavage product RelBΔ were detected in extracts of OCI-Ly10 tumor specimens by Western Blotting after 22 days.
(§3) For this purpose, the ABC-DLBCL cell line OCI-Ly10 and the GCB-DLBCL cell line Su-DHL-6 were injected as subcutaneous xenografts into NOD/scid IL-2Rg^null (NSG) mice (FIG. 8A). Both tumor cell lines were engrafted simultaneously on opposite flanks of individual mice.
(§4) Transplanted tumors were removed at the end of the treatment period and apoptotic cells were visualized by TUNEL staining on sections of the tumor tissue (FIG. 8B).

[5] = tested on: primary murine CD4+ T-cells; assay: IL-2 mRNA (qPCR) and protein (ELISA) in primary murine CD4+ T cells; format: cell-based, mouse; conditions: 5 and 10 μM
[6] = tested on: ABC-DLBCL cells; assay: IL-6 and IL-10 secretion of ABC-DLBCL cells (ELISA); conditions: 20 h; ABC cell lines
Description: Whole cell extracts, Western blotting and EMSA were performed as described previously.^9 Antibodies used were BCL-XL (Cell signaling), MALT1 (H300, B12), BCL10 (H197), c-FLIP (Alexis Biochemicals) and β-Actin (I-19). BCL10 cleavage was visualized after 20 h treatment of diffuse large B-cell lymphoma cells with different doses of PD.

[7] = tested on: GCB-DLBCL cell lines BJAB, Su-DHL-6 and Su-DHL-4; assay: MTT cytotoxicity test, GCB-DLBCL cells; format: cell-based; conditions: two days, single treatment, increasing concentrations
Description: as §1
(§5) Further, cell viability was determined by cell counting after 4 days of treatment (FIG. 7B, D and FIG. 12C).

[8] = tested on: ABC-DLBCL cells HBL1, OCI-Ly3, U2932 and TMD8; assay: MTT cytotoxicity test, ABC-DLBCL cells; format: cell-based; conditions: two days, single treatment, increasing concentrations
Description: as §1, §5

[9] = tested on: primary human PBMCs; assay: IL-2 secretion of primary human PBMCs (ELISA); format: cell-based; conditions: 5 and 10 μM for 3 h; anti-CD3/CD28 20 h
[10] = tested on: ABC-DLBCL cell line OCI-Ly10; assay: Murine DLBCL xenogeneic tumor model, ABC-DLBCL OCI-Ly10; format: in vivo, NSG mice
Description: as §2, §3, §4

[11] = tested on: ABC-DLBCL cells; assay: Apoptosis by AnnexinV-PE/7-AAD FACS, ABC-DLBCL cells; format: cell-based; conditions: 15 μM, five days
Description: as §1

[12] = target: AtMC4 (Arabidopsis thaliana (Mouse-ear cress), UniProt O64517); conditions: cited from earlier work
Chain of AtMC4 (O64517 whole entry): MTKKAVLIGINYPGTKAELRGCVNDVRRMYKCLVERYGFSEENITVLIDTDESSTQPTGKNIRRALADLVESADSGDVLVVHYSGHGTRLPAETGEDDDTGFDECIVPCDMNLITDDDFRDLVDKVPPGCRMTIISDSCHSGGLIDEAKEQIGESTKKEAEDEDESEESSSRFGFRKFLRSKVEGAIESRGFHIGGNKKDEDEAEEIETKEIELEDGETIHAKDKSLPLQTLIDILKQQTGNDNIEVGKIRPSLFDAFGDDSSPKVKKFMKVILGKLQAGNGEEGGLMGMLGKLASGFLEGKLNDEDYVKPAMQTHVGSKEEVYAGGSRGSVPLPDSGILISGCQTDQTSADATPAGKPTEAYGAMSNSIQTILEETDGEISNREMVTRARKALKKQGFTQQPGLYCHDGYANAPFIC

[13] = target: recombinant full length (FL) GSTMALT1 (Homo sapiens (Human), UniProt Q9UDY8); assay: Recombinant GSTMALT1 cleavage assay with Ac-LRSR-AMC; format: biochemical
Chain of recombinant full length (FL) GSTMALT1 (Q9UDY8 other isoform, or with tags, fused parts or gaps): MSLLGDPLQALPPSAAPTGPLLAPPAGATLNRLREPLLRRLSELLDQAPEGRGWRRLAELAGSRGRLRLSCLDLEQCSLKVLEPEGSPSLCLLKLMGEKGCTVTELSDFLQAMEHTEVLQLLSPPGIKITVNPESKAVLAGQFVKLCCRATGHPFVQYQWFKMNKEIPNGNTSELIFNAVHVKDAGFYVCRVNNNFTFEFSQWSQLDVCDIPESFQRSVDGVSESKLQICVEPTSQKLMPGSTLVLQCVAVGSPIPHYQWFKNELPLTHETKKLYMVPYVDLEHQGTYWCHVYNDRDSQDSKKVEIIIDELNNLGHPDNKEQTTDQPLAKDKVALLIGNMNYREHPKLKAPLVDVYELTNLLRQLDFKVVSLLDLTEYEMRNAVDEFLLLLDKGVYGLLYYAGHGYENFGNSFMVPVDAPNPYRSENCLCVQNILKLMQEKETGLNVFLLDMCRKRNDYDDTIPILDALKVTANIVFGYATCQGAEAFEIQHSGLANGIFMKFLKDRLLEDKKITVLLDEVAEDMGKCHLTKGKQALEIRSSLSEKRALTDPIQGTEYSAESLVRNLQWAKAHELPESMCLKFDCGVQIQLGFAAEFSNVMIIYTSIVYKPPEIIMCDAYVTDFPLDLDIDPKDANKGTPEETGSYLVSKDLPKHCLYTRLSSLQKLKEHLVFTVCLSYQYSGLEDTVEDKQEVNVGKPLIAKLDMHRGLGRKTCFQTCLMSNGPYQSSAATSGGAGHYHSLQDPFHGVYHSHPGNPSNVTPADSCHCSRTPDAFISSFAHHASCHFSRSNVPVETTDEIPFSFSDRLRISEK
Description: The MALT1 cleavage assay was used to screen ˜18000 small molecules of the ChemBioNet library at the Leibniz Institute for Molecular Pharmacology (FMP) in Berlin.^35 Screening volume was 11 μl in a 384-well non-binding assay plate (Corning) with […] GSTMALT1 against 10 μM final concentration of compounds. The assay was performed with 50 μM of Ac-LRSR-AMC substrate for 20 min at 30° C. As a negative control the recombinant MALT1 mutant C453A was used, as a medium inhibition control 1 nM of the Z-VRPR-FMK peptide.
To screen for small molecular weight compounds that can inhibit MALT1 protease activity, recombinant GSTMALT1 was purified from E. coli to establish an in vitro protease cleavage assay suitable for high throughput screening (HTS). GSTMALT1 was incubated for 1 h at 30° C. in the presence of 50 μM of the tetrapeptide substrate Ac-LRSR-AMC, which is derived from the MALT1 cleavage site in the C-terminus of BCL10.^7 Proteolytic activity was determined by measuring the increase of fluorescence, which is emitted after cleavage and the accompanying release of the fluorophore AMC (FIGS. 1A and B). […] Similar to arginine-lysine specific metacaspases, the MALT1 protease has a high preference for cleaving after an arginine residue.

[14] = target: AtMC9 (Arabidopsis thaliana (Mouse-ear cress), UniProt Q9FYE1); conditions: cited from earlier work
Chain of AtMC9 (Q9FYE1 whole entry): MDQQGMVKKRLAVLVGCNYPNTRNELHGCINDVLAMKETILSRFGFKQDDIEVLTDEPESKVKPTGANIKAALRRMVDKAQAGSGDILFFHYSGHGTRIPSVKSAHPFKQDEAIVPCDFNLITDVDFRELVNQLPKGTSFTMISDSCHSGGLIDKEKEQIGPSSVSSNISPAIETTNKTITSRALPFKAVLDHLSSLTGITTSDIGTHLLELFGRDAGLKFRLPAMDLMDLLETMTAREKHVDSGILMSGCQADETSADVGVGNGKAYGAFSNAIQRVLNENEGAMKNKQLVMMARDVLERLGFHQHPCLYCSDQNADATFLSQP

[15] = target: human recombinant CASP8 (Homo sapiens (Human), UniProt Q14790); assay: CASP8 cleavage assay with Ac-DEVD-AMC; format: biochemical; conditions: 50 pM; picomolar concentrations
Chain of human recombinant CASP8 (Q14790 217-374): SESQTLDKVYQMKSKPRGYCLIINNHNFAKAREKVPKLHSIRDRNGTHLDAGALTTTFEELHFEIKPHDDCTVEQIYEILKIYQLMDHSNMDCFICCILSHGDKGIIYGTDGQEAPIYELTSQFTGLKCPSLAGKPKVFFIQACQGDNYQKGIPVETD
Chain of human recombinant CASP8 (Q14790 385-479): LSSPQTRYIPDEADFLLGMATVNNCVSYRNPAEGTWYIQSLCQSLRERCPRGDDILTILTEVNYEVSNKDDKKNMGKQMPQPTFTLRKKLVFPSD
Description: After incubation of 16 h at 4° C.

[16] = tested on: GCB-DLBCL cells; assay: Viability by cell counting, GCB-DLBCL cells; format: cell-based; conditions: 4 days of treatment
Description: as §1, §5

[17] = tested on: ABC-DLBCL cells; assay: Viability by cell counting, ABC-DLBCL cells; format: cell-based; conditions: 4 days of treatment
Description: as §1, §5

[18] = daily i.p., mepazine 12 mg/kg or thioridazine 16 mg/kg, 22 days

## CN1CCCC(CN2c3ccccc3Sc3ccccc32)C1 (stereo not shown) [mepazine, 10-[(1-methyl-3-piperidinyl)methyl]-10H-phenothiazine acetate]
[1]
  apoptotic rate: apoptosis was not increased
[2]
  secreted IL-2 levels: decrease of IL-2 levels
[3]; 20 h
  BCL-XL and FLIP-L protein levels: dose-dependent decrease
[3]; 20 hours
  NF-κB target DNA binding: reduced NF-κB target DNA binding
[4]; after 22 days of treatment
  apoptotic cells in tumor sections (TUNEL): no induction of apoptosis
[4]; [18]
  tumor growth of Su-DHL-6 xenograft: completely failed to exert any inhibitory effects
[5]; 3 h pre-treatment, anti-CD3/CD28 4 h
  IL-2 mRNA induction: reduced in a dose-dependent manner
[5]; anti-CD3/CD28 20 h
  IL-2 protein expression: reduced in a dose-dependent manner
[6]
  decrease of IL-6 and IL-10 secretion: ~50%
[7]
  cell viability by MTT: without significantly affecting GCB-DLBCL cells
[8]
  cell viability by MTT: promoted a decrease of cell viability
[9]
  IL-2 secretion: significant decrease of IL-2 secretion
[10]; Western Blot after 22 days
  constitutive RelB cleavage in OCI-Ly10 tumor specimens: impaired
[10]; after 22 days of treatment
  apoptotic cells in tumor sections (TUNEL): increased the number of apoptotic cells
[10]; [18]
  tumor growth of OCI-Ly10 xenograft: strongly impaired the expansion
[11]
  apoptotic rate: enhanced apoptotic rate

## CC(C)C[C@H](NC(=O)[C@@H](NC(=O)N[C@@H](Cc1ccccc1)C(=O)O)[C@@H]1CCN=C(N)N1)C(=O)N[C@H](C=O)Cc1ccccc1 [Chymostatin]
[12]; 100 μM inhibitor
  effect on AtMC4: inhibited
[13]; 100 μM inhibitor
  effect on MALT1 activity: diminished; also recorded: inhibited
[14]; 100 μM inhibitor
  effect on AtMC9: inhibited

## Cc1ccc(S(=O)(=O)NC(CCCCN)C(=O)CCl)cc1 (stereo not shown) [TLCK]
[12]; 1 μM inhibitor
  effect on AtMC4: much weaker
[13]; 1 μM inhibitor
  effect on MALT1 activity: no effects; also recorded: only mildly affecting MALT1 activity
[14]; 1 μM inhibitor
  effect on AtMC9: strongly inhibits

## c1ccc2c(c1)Nc1ccccc1S2 [phenothiazine]
[13]; 1, 5 and 20 μM
  inhibition of GSTMALT1 activity: inhibiting MALT1 activity in a dose-dependent manner

## CC(C)[C@H](NC(=O)[C@H](CCCNC(=N)N)NC(=O)N[C@@H](Cc1ccccc1)C(=O)O)C(=O)N[C@H](C=O)CCCNC(=N)N [Antipain] ({Phe-CO}-Arg-Val-Arg-aldehyde)
[12]; 1 μM inhibitor
  effect on AtMC4: inhibited
[13]; 1 μM inhibitor
  effect on MALT1 activity: diminished; also recorded: inhibited
[14]; 1 μM inhibitor
  effect on AtMC9: inhibited

## Ac-DEVD-CHO
[13]; 200 μM inhibitor
  effect on MALT1 activity: not significantly active; also recorded: only marginally reduced MALT1 activity
[15]
  CASP8 activity against Ac-DEVD-AMC: almost total decline of enzymatic activity; also recorded: effectively blocked CASP8 activity

## CC(=O)N[C@@H](CC(C)C)C(=O)N[C@@H](CC(C)C)C(=O)N[C@H](C=O)CCCNC(=N)N [Leupeptin]
[12]; 1 μM inhibitor
  effect on AtMC4: acting stronger on plant metacaspases
[14]; 1 μM inhibitor
  effect on AtMC9: acting stronger on plant metacaspases

## Aprotinin
[13]; 5 μg/ml inhibitor
  effect on MALT1 activity: no effects

## CC(C)C[C@H](NC(=O)[C@H]1O[C@@H]1C(=O)O)C(=O)NCCCCN=C(N)N [E-64]
[12]; 100 μM inhibitor
  effect on AtMC4: mild effect
[13]; 100 μM inhibitor
  effect on MALT1 activity: does not inhibit MALT1
[14]; 100 μM inhibitor
  effect on AtMC9: not AtMC9

## Z-VRPR-FMK
[13]; 1 nM inhibitor, 50 μM Ac-LRSR-AMC, 1 h at 30° C.
  decrease of MALT1 activity: ~50%
[13]; increasing amounts, low nanomolar concentrations
  MALT1 cleavage activity with increasing amounts of inhibitor: total loss of MALT1 activity; also recorded: completely blocked MALT1 cleavage activity

## CC(CN1c2ccccc2Sc2ccccc21)N(C)C (stereo not shown) [promethazine]
[13]; concentrations up to 20 μM
  MALT1 inhibition: not inhibiting MALT1 protease activity; also recorded: did not cause any significant MALT1 inhibition
[16]
  number of viable cells / viability: did not significantly inhibit viability
[17]
  number of viable cells / viability: did not significantly inhibit viability

## CC(C)CC(=O)N[C@H](C(=O)N[C@H](C(=O)N[C@@H](CC(C)C)[C@@H](O)CC(=O)N[C@@H](C)C(=O)N[C@@H](CC(C)C)[C@@H](O)CC(=O)O)C(C)C)C(C)C [Pepstatin A] (Isovaleryl-VV[Sta]A[Sta]-OH)
[13]; 100 μM inhibitor
  effect on MALT1 activity: no effects
